Measurements published in paper PMC12645137 (Current Neuropharmacology, 2025).

Assays:
[1] = target: T1, AChE (source Electric eel) (Electrophorus electricus, UniProt O42275); assay: biochemical
T1 construct: from tissue
Protocol: (§1) The cholinesterase inhibitory potentials of our synthesized compounds were evaluated against cholinesterase enzymes (AChE/BChE). The AChE (source Electric eel) and BChE (source equine serum) were used in the study following previously published Ellman's assay. The assay basic principle involves the hydrolytic breakdown of acetylthiocholine iodide (ATChI) by AChE and butyryl thiocholine iodide (BTChI) by BChE enzymes, leading to the formation of an intermediate compound which is subsequently complexed with 5,5-dithio bis nitrobenzoic acid (DTNB) to form a UV-detectable compound. The yellowish color product indicates the hydrolysis of ATChI and BTChI substrates by respective enzymes, which were analyzed at 412 nm using a UV-visible spectrophotometer. […] A test sample of 1000 µl was taken in a cuvette, to which enzyme solution (50 µl) and DTNB reagent of 50 µL were added. The AChE (0.03 U/ml) and BChE (0.01 U/ml) solutions were prepared in 0.1 M phosphate buffer having pH 8.0. The ATChI and BTChI substrate solutions (0.0005 M) and 0.0002273 M solution of DTNB were prepared using distilled water and stored at 8°C before further use. For 15 minutes, the solution mixture was incubated at 30 °C, after which a solution of the substrate (50 µl) was added and then subjected to spectroscopic analysis. Using a double beam spectrophotometer, the sample absorbance was measured for 4 minutes at 412 nm beside the time of reaction. […] All values were taken in triplicate under the same conditions.
(§2) Enzymatic activity percentage=V/Vmaxx100
(§3) V is the reaction rate in the inhibitor's presence, whereas Vmax is the reaction rate in the absence of the inhibitor.

[2] = target: T2, BChE (source equine serum) (Equus caballus, UniProt P81908); assay: biochemical
T2 construct: from tissue; host or cells: equine serum
T2 sequence (P81908 whole entry): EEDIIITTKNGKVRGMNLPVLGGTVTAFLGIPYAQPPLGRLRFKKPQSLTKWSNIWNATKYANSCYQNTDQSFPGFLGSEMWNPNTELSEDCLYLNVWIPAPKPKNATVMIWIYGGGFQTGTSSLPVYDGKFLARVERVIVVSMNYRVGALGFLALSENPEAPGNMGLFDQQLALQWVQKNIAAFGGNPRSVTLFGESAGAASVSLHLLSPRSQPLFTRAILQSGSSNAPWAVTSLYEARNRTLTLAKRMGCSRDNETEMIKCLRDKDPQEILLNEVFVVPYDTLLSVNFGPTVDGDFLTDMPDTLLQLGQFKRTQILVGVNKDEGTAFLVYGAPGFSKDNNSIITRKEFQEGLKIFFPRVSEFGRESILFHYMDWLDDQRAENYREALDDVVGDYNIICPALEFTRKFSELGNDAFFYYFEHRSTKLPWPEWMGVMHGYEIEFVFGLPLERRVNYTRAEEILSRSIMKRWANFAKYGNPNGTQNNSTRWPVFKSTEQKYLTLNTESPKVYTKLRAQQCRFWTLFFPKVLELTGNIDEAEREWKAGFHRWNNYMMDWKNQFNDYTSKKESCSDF
Protocol: as §1, §2, §3

mice = assay: Acute toxicity study; format: in vivo, albino mice; settings: i.p., doses 25 to 1000 mg/kg
Protocol: In our study, experimental animals (albino mice male/female weighing 18-32 gm) were obtained from the National Institute of Health (NIH), Islamabad, Pakistan. These animals were provided adequate food, water, and light (ad libitum). Appropriate conditions were maintained as per laboratory specifications, including a temperature of 22°C a dark and light cycle of 12 hours each. As per the Animals Scientific Procedure Act 1986, UK, the in-vivo studies were performed on experimental animals from 9:00 am to 4:00 pm. The departmental committee of research ethics of the Pharmacy Department, University of Malakand, approved the study protocol via reference no DREC/20210622/50.
Acute toxicity was carried out for the safety profile assessment of our test compounds. For this purpose, the mice were grouped into six different groups (n = 6). The test compound was given to each mouse at different doses (25 to 1000 mg/kg) via the intraperitoneal (i.p) route. Changes in behaviour such as convulsions, hyperactivity, writhing, sedation, righting reflex, aggressiveness, grooming, ataxia, motor activity (increased or decreased), respiratory arrest, and mortality were observed after the administration of sample solution for the first two hours and then again for 24 hours.

[3] = system: scopolamine-induced amnesic mice; assay: Elevated Plus Maze (EPM) test in scopolamine-induced amnesic animals; format: in vivo, albino mice; settings: scopolamine 1 mg/kg amnesic mice, i.p., AN-1 10 mg/kg, progesterone 10 mg/kg, galantamine 8 mg/kg
Protocol: (§4) The mice were divided into the following five groups, and each group had six animals. The standard drug and test samples were carefully administered to the mice via the intraperitoneal route.
(§5) Group IV (Progesterone treated group) = Animals treated with 10 mg/kg progesterone and scopolamine 1 mg/kg.
(§6) Group V (Test compound group) = Animals received 10 mg/kg progesterone derivative (AN-1) and 1 mg/kg scopolamine.
The EPM behavioral test was performed to assess the learning abilities and long-term spatial memory of the experimental animals. The EPM apparatus has the appearance of a plus sign which was 50 cm elevated from the ground. The apparatus has two open arms (50 cm long and 10 cm wide), and two closed arms having dimensions of 20, 50, and 10 cm in height, length, and width, respectively. The open and closed arms were joined with a 10 × 10 central square.
After 30 minutes of the intraperitoneal drug administration on the seventh day of treatment, mice of each group were placed over the open arm end of the EPM apparatus in such a way that their faces were away from the midpoint of the apparatus. Transfer latency (TL) is the time a mouse takes to enter the closed arm entirely with all its legs from the open arm of the apparatus. The time of initial transfer latency (ITL) was observed, and then the animals were allowed freely for 1.5 minutes to search the EPM apparatus.
After twenty-four hours of the training period, test trials were conducted to determine the retention of tasks that were learnt during training. Retention transfer latency (RTL) was measured by placing the experimental mice at the open end of the apparatus, ensuring that they faced away from its midpoint. The mouse was allowed to enter the closed arm entirely with all its legs. A decline in TL compared to ITL indicated an improvement in memory.

[4] = system: scopolamine-induced amnesic mice; assay: Open field test (OFT) in scopolamine-induced amnesic animals; format: in vivo, albino mice; settings: i.p., AN-1 10 mg/kg, progesterone 10 mg/kg, galantamine 8 mg/kg
Protocol: as §4, §5, §6
Open field behavioral test was carried out for the assessment of locomotor activities like the number of line crossing. The apparatus was made from plywood having 81×81×28.5 cm dimensions. Sixteen squares (20×20 cm) were made on the base of the apparatus by drawing four horizontal and four vertical lines. […] Furthermore, exploration time spent by mice in central and peripheral areas of the apparatus was also recorded by allowing the mice for 30 minutes to explore the apparatus.

T1 sequence (O42275 24-633): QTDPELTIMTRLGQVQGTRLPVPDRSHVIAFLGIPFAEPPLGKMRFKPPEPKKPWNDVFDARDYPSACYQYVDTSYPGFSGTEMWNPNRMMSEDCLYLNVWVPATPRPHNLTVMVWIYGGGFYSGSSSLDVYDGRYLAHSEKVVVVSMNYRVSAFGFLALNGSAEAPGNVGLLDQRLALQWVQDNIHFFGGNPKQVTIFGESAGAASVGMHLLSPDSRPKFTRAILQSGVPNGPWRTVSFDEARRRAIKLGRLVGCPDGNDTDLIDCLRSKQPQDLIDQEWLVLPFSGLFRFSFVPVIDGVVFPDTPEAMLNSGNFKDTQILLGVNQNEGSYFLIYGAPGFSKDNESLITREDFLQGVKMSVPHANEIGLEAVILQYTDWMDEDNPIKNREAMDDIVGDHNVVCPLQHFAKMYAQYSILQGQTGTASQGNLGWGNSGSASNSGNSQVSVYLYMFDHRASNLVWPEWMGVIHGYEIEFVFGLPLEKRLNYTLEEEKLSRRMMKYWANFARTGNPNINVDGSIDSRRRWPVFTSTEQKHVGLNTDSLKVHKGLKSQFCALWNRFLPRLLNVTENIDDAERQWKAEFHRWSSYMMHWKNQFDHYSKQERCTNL

In the case of `COc1ccc(C/N=C(/C)[C@H]2CC[C@H]3[C@@H]4CCC5=CC(=O)CC[C@]5(C)[C@H]4CC[C@]23C)cc1` [AN1, (8S,9S,10R,13S,14S)-17-((Z)-1-((4-methoxybenzyl)imino)ethyl)-10,13-dimethyl-1,2,6,7,8,9,10,11,12,13,14,15,16,17-tetradecahydro-3H-cyc-lopenta[a]phenanthren-3-one], the IC50 [1] is reported as 56.5 µM, the inhibition at 125 µg/mL ([1]; read-out: % AChE Inhibition) is reported as 69.4% and the inhibition at 250 µg/mL ([1]; read-out: % AChE Inhibition) is reported as 76.3%. For the same compound, the inhibition at 500 µg/mL ([1]; read-out: % AChE Inhibition) was 83.2%, the inhibition at 1000 µg/mL ([1]; read-out: % AChE Inhibition) was 88.9 ± 1.2% and the IC50 [2] was 43.3 µM. The inhibition at 62.5 µg/mL ([2]; read-out: % BChE Inhibition) was 61.5%, the inhibition at 125 µg/mL ([2]; read-out: % BChE Inhibition) was 68.3% and the inhibition at 250 µg/mL ([2]; read-out: % BChE Inhibition) was 71.9%. For the same compound, the inhibition at 500 µg/mL ([2]; read-out: % BChE Inhibition) was 80.4%, the inhibition at 1000 µg/mL ([2]; read-out: % BChE Inhibition) was 86.8 ± 1.24% and the “toxic dose (mortality observed)” value (mice) was ≥ 1000 mg/kg. For the same compound, the “dose safe, without toxic effects, mortality or unusual behavioral response” value (mice; observed 2 h and 24 h) was ≤ 500 mg/kg, the “retention transfer latency (RTL)” value ([3]; 24 h after training, disease group 67 sec) was 45.33 s and the “initial transfer latency (ITL)” value ([3]; disease group 73 sec) was 50.16 s. The “number of lines crossed” value ([4]; 5 min, scopolamine 1 mg/kg amnesic mice, disease group 26.33) was 43.66, the “time spent in the central area” value ([4]; 30 min exploration, scopolamine 1 mg/kg amnesic mice, disease group 4.66) was 10.33 mint and the “time spent in the peripheral area” value ([4]; versus scopolamine/disease group) was “significantly (p<0.01) less time in the peripheral area”.
